# Assay results taken from publication PMC6218957, “VS-4718 Antagonizes Multidrug Resistance in ABCB1- and ABCG2-Overexpressing Cancer Cells by Inhibiting the Efflux Function of ABC Transporters” (Frontiers in Pharmacology, 2018).
# Tests used:
# ABCG2 [1] = target: T1, ABCG2 (Homo sapiens, UniProt Q9UNQ0)
# T1 sequence (Q9UNQ0 1-655): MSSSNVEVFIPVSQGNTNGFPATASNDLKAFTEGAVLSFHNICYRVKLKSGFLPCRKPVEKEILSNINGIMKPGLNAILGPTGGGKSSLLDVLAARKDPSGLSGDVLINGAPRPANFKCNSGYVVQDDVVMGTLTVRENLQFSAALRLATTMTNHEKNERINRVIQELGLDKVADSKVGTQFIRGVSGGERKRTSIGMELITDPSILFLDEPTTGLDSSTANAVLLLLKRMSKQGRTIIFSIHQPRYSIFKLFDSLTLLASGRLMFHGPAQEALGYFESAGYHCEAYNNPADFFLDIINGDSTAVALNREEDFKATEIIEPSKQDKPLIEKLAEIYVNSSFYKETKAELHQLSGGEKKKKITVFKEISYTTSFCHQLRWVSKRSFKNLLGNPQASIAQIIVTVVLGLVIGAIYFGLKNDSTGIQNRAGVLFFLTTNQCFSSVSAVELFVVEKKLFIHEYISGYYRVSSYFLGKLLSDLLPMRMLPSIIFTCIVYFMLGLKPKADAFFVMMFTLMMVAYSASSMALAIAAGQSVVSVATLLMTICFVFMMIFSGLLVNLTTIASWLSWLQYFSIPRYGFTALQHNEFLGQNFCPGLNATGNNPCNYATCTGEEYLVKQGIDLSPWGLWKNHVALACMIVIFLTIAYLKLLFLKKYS
# ABCB1 [2] = target: T2, ABCB1 (Homo sapiens, UniProt P08183)
# ABCG2 [3] = target: T1, ABCG2; experiment: biochemical; parameters: cell membranes that overexpressed ABCG2
# ABCB1 [4] = target: T2, ABCB1; experiment: ATPase stimulation in ABCB1-overexpressing membranes; also [3H]-paclitaxel accumulation/efflux inhibition in KB-C2 cells; format: biochemical; parameters: cell membranes that overexpressed ABCB1
# T2 sequence (P08183 whole entry): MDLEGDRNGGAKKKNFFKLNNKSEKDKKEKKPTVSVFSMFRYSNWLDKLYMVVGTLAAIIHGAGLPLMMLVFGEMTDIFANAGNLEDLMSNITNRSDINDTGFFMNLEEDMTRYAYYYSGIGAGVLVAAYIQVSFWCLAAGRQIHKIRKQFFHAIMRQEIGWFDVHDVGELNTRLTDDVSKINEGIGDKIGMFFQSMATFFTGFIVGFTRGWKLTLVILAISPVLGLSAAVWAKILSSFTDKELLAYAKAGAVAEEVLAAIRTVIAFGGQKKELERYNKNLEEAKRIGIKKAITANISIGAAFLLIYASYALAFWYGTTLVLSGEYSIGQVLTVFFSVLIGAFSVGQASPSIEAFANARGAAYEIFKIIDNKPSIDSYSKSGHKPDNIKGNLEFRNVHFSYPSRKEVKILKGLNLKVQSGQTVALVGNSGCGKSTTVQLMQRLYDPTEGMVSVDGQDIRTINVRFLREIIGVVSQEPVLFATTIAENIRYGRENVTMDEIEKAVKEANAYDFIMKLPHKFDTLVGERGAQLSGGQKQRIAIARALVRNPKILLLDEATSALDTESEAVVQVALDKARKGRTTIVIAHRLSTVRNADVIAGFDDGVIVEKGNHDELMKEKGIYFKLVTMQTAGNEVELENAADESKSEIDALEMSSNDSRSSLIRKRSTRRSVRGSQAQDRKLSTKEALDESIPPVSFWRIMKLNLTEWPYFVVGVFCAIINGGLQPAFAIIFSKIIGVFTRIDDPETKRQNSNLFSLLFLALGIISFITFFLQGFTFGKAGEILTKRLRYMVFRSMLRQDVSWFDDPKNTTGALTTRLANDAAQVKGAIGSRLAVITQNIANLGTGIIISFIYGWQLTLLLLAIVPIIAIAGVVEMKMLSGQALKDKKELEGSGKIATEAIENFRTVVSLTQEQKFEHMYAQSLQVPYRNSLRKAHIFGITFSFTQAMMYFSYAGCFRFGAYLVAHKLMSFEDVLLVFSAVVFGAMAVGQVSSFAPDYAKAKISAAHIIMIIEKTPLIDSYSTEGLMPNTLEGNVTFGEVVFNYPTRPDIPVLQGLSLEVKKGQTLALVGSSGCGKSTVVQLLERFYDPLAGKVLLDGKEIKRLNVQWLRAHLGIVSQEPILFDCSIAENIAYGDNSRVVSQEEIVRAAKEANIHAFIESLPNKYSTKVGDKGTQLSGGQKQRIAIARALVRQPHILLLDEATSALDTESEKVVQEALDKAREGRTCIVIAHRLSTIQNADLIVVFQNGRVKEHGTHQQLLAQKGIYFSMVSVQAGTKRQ
smiles,measurement,setting,value
O=C1c2c(O)ccc(O)c2C(=O)c2c(NCCNCCO)ccc(NCCNCCO)c21 [Mitoxantrone],radiolabelled efflux/accumulation in ABCG2-overexpressing NCI-H460/MX20 vs paren,ABCG2 [1],[^3H]-mitoxantrone efflux in ABCG2-overexpressing NCI-H460/MX20 cells
CC(=O)O[C@H]1C(=O)[C@@]2(C)[C@H]([C@H](OC(=O)c3ccccc3)[C@]3(O)C[C@H](OC(=O)[C@H](O)[C@@H](NC(=O)c4ccccc4)c4ccccc4)C(C)=C1C3(C)C)[C@]1(OC(C)=O)CO[C@@H]1C[C@@H]2O [Paclitaxel],radiolabelled efflux/accumulation in ABCB1-overexpressing KB-C2 vs parental KB-3,ABCB1 [2],VS-4718 significantly reduced the efflux of [^3H]-paclitaxel in ABCB1-overexpressing KB-C2 cells
CNC(=O)c1ccccc1Nc1cc(Nc2ccc(N3CCOCC3)cc2OC)ncc1C(F)(F)F [VS-4718],EC50,ABCG2 [3],9.6 µM
same,EC50,ABCB1 [4],1.72 µM
